Residues, ends and D or L forms follow the SMILES beside them.
Assays:
[1] = test system: all gram-positive bacterial strains; experiment: Mean MIC and therapeutic index, gram-positive strains; assay type: cell-based; details: four gram-positive strains
Description: (§1) The minimal inhibitory concentrations (MICs) of peptide derivatives versus planktonic bacteria were assessed using a modification of the broth microdilution assay previously described in the National Committee for Clinical Laboratory Standards (NCCLS). In brief, bacteria at mid-logarithmic growth were collected by centrifugation at 2,500 × g for 5 min. Subsequently, the pellet was resuspended and adjusted in Mueller-Hinton Broth (MHB; BD Bacto™, USA) to an OD620 of 0.05. Fifty µL of bacterial suspensions was transferred to 96-well microplates. Later, 50 µL of peptide derivatives at 0.98–250 µg/mL in 10 mM PBS, was added to wells and incubated for 24 h at 37°C with continuous shaking at 220 rpm. […] The experiments were done in three technical replicates and repeated independently.
(§2) The therapeutic index (TI) is widely used for evaluating a peptide’s efficacy and safety. It is the ratio between the minimum hemolytic concentration (MHC, the concentration causing 10% hemolysis) and the geometric mean (GM) value of the MIC [15]. […] While, both lysine-substituted peptides (BiF2_7K and BiF2_5K7K) had higher TIs against all tested biofilm-forming bacteria than did the two parent peptides, and the TI of BiF2_5K7K was higher than that of BiF2_7K.

[2] = test system: planktonic S. epidermidis; experiment: Time-killing analysis; assay type: cell-based, Staphylococcus epidermidis; details: for number of S. epidermidis: within 4 h, MHB, 37°C
Description: The time-dependent bactericidal activity of BiF2_5K7K against planktonic S. epidermidis was determined as previously described. In brief, mid-log phase bacteria in MHB were exposed to BiF2_5K7K at MIC and/or MBC for 24 h at 37°C. The bacterial suspensions were obtained at specific time point (0, 2, 4, 6, 8 and 24 h), and 10-fold serially diluted with PBS and then plated on TSA. Untreated bacterial suspension was served as a control. After incubation, the number of CFUs was determined by colony count.

[3] = test system: mature S. epidermidis biofilm; experiment: Confocal laser scanning microscopy of mature biofilm; assay type: cell-based, Staphylococcus epidermidis
Description: The effect of BiF2_5K7K against mature biofilm was also investigated. In short, overnight cultures of S. epidermidis were diluted to 10^7 CFU/mL with TSB and further incubated at 37°C for 24 h to form biofilms. Next, wells were rinsed with sterile water and mature biofilms was treated with BiF2_5K7K at concentration of MBEC50 and further incubated for 24 h. Subsequently, biofilms were washed again, then stained with green Alexa-ConA and LIVE/DEADTM BacLight™ Bacterial Viability Kit (Invitrogen™, Thermo Fisher, USA) for 15 min. After staining, 2.5% glutaraldehyde was used to fixed biofilms, then observed under CLSM as described above.

[4] = test system: all gram-negative bacterial strains; experiment: Mean MIC and therapeutic index, gram-negative strains; assay type: cell-based; details: four gram-negative strains
Description: as §1, §2

[5] = test system: S. epidermidis (ATCC 35984) biofilm; experiment: Biofilm-formation inhibitory activity, crystal violet staining; assay type: cell-based, Staphylococcus epidermidis; details: CV staining, TSB, 10^6 CFU/mL, 24 h, 37°C, 0.98-250 µg/mL
Description: The biofilm inhibitory activity of peptide derivatives was assessed by modified crystal violet (CV) staining. Briefly, the pellet of S. epidermidis (ATCC 35984) was collected through centrifugation of bacterial suspensions grown overnight at 2,500 × g for 5 min. Subsequently, the pellet was resuspended and diluted with TSB to a final concentration of 10^6 CFU/mL. Then, 50 µL of these diluted suspensions was transferred to 96-well microplates containing same volume of peptide derivatives in 10 mM phosphate buffer saline (PBS; Caisson Labs, USA), with concentrations ranging from 0.98 to 250 µg/mL. Vancomycin was used as positive control while TSB medium without bacteria was used as negative control. After 24 h of incubation and reaching static growth at 37°C, culture media as well as planktonic cells were removed, then the biofilm in each well was washed thrice with 0.85% NaCl. For CV staining, biofilms were fixed with 95% ethanol and stained with a 0.1% (v/v) CV solution for 15 min. After removal of excess dye, each well was washed thrice with 0.85% NaCl and resuspended in 95% ethanol to dissolve bound dye. Absorbance was determined at 570 nm using a Multiskan SkyHigh microplate reader (Thermo Scientific™, Singapore). All experiments were done in six technical replicates and repeated independently three times. Minimum biofilm inhibitory concentrations at 50% and 90% (MBIC50 and MBIC90) refers to concentrations of the peptide at which the inhibition of biofilm was at least 50% and 90%, respectively.

[6] = test system: S. epidermidis biofilm formation genes (ica, agr); experiment: Transcriptional analysis, real-time RT-PCR; assay type: cell-based, Staphylococcus epidermidis; details: at MBIC50, 24 h
Description: The expression level of S. epidermidis biofilm formation gene was investigated using a real-time reverse transcription-polymerase chain reaction. In brief, total RNA of S. epidermidis biofilm, both untreated and treated with BiF2_5K7K (at MBIC50 for 24 h), was extracted by a RNeasy PowerBiofilm Kit (Qiagen, USA) and immediately reverse transcribed to cDNA by iScript reserve transcription supermix (Biolabs, UK). RNAprotect Bacteria Reagent (Qiagen, USA) was used to preserve RNA during isolation. Remaining DNA was removed by treatment with DnaseI (Biolabs, UK). Real-time RT-PCR was done in duplicate using iTaq Universal SYBR Green Supermix (Bio-Rad, USA) with 5 ng of cDNA and […] of forward and reverse primers (Table S1) using a CFX96 Real-Time PCR Detection System (Bio-Rad, USA). The cycling condition was started with an initial denaturation at 95°C for 2 min, followed by 50 amplification cycles consisting of 95°C for 30 s, 56°C for 1 min, and 72°C for 1 min. Subsequently, a melting curve was generated from 65°C to 95°C at intervals of 1 s at the end of each run. To analyse the relative quantitation of gene expression, 2^− ΔΔCt method was used, and 16S ribosomal subunit (rRNA) was served as the reference or housekeeping gene.

## CC[C@H](C)[C@H](NC(=O)[C@H](CCCCN)NC(=O)[C@H](CCCCN)NC(=O)[C@@H](NC(=O)[C@H](CC(C)C)NC(=O)[C@@H](N)Cc1ccccc1)C(C)C)C(=O)N[C@@H](CCCCN)C(=O)N[C@@H](CCCCN)C(=O)N[C@H](C(=O)N[C@@H](CC(C)C)C(=O)N[C@@H](CCCNC(=N)N)C(=O)N[C@@H](CCCNC(=N)N)C(N)=O)[C@@H](C)CC [BiF2_5K7K] (H-FLVKKIKKILRR-NH2; N-terminus assumed)
[1]
  GM +, geometric mean of MIC values from all gram-positive bacterial strains: 199.22 µg/mL
[2]; peptide at MBC
  number of S. epidermidis: approximately 10^3 CFU/mL
[2]; peptide at MIC, after 8 h
  regrowth: regrowth was observed
[2]; peptide at MIC
  number of S. epidermidis: approximately 10^3 CFU/mL
[3]; at MBEC50, 24 h, p-value < 0.01
  fluorescence intensity ratio (live to dead cells), treated vs untreated: significant difference
[3]; at MBEC50, 24 h treatment
  mature biofilm matrix (Alexa-ConA fluorescence intensity): significant decrease
[4]
  GM-, geometric mean of MIC values from all gram-negative bacterial strains: 93.75 µg/mL
[5]; minimum concentration inhibiting biofilm formation more than 50%
  MBIC50: 7.81 µg/mL
[5]; minimum concentration inhibiting biofilm formation more than 90%
  MBIC90: 31.25 µg/mL
[6]
  agrC and agrA gene expression: neither agrC nor agrA gene expression changed at all
  expression of quorum-sensing genes agrD and agrB vs untreated control: reduced
  levels of icaC or icaR genes: no alteration
[6]; 2^-ΔΔCt, 16S rRNA reference, significantly upregulated
  relative expression level of icaA, icaD and icaB genes: greater than 1
